Laboratory results as given in EP4603105A1, “PHARMACEUTICAL COMPOSITION CONTAINING CYCLIC COMPOUND HAVING SELECTIVE KRAS INHIBITORY EFFECT AGAINST HRAS AND NRAS” (CHUGAI SEIYAKU KABUSHIKI KAISHA, priority 2022, dated 2024).
Where two headings read alike, the source gives them in different places.

Legend:
HRAS wild-type protein = HRAS wild-type protein (Homo sapiens, UniProt P01112); experiment: Binding to HRAS by surface plasmon resonance (SPR), KD and KD ratio to KRAS
Outline: (§1)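 GDP-loaded biotinylated Avi-tag RAS proteins (E. coli-expressed) captured on a Biotin CAPture chip at ~100–300 RU; single-cycle kinetics at 30°C, 100 µL/min, 75 s injections of rising compound concentrations. HBS pH 7.4 running buffer with 1 mM DTT, 10 mM MgCl2, 10 µM GDP, 4% DMSO. KD from 1:1 binding fit.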

[1] = target: GDP-bound KRAS wild-type protein (Homo sapiens, UniProt P01116); experiment: Binding to KRAS by surface plasmon resonance (SPR), dissociation constant KD
Outline: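 Biotinylated GDP-bound RAS was captured at about 100–300 RU. Running buffer: HBS pH 7.4, 10 mM MgCl2, 10 µM GDP, 1 mM DTT, 0.01% Tween 20, 4% DMSO.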

[2] = target: GDP-bound NRAS wild-type protein (Homo sapiens, UniProt P01111); experiment: Binding to NRAS by surface plasmon resonance (SPR), KD and KD ratio to KRAS
Outline: as §1

[3] = system: human lung cancer strain NCI-H441; experiment: NCI-H441 cell proliferation inhibitory activity (CellTiter-Glo, 4 days); format: cell-based; conditions: read-out: NCl-H441 IC50
Outline: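 Readout: […] after the ATP-based reagent. Compound: serial dilutions in dimethyl sulfoxide.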

[4] = ratio of KD for HRAS wild-type protein to KD for KRAS
[5] = ratio of KD for GDP-bound NRAS wild-type protein to KD for KRAS

GDP-bound NRAS wild-type protein, sequence (P01111 whole entry): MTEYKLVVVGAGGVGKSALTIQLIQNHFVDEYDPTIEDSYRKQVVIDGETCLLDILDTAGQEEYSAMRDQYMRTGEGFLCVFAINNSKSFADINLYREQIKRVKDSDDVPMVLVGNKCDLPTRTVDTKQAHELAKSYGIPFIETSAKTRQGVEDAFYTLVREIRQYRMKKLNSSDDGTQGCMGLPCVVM
HRAS wild-type protein, sequence (P01112 whole entry): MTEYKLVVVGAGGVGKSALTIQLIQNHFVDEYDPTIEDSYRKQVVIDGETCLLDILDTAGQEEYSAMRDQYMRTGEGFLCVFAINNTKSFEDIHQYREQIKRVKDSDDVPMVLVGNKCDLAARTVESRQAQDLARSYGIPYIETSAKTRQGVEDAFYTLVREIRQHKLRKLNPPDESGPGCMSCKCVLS
GDP-bound KRAS wild-type protein, sequence (P01116 1-188 isoform P01116-2): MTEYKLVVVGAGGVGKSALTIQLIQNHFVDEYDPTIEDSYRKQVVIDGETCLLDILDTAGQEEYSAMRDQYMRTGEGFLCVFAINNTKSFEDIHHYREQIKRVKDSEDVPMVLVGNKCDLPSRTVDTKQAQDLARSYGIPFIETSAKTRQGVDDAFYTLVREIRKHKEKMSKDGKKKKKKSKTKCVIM

SMILES	HRAS /KRAS (HRAS wild-type protein; [4])	Kd ([1]; Single Cycle Kinetics) [nM]	NRAS /KRAS [2, 5]	IC50 ([3]; NCI-H441 cells, 4 days) [nM]	HRAS /KRAS (HRAS wild-type protein; ratio of KD with respect to HRAS wild-type protein to KD with respect to KRAS)	Kd ([1]; Single Cycle Kinetics, 1:1 binding model) [nM]	NRAS /KRAS ([2]; ratio of KD with respect to GDP-bound NRAS wild-type protein to KD with respect to KRAS)	IC50 ([3]; 50% proliferation inhibitory concentration, four days) [nM]	Kd ([1]; 1:1 binding model) [nM]
CCC[C@H]1C(=O)N[C@@H](C2CCCC2)C(=O)N(C)CC(=O)N(C)[C@H]2C/C=C\CCN(C2=O)[C@@H](Cc2ccc(C(F)(F)F)cc2)C(=O)N(C)CC(=O)N[C@@H](CCc2cc(F)c(C(F)(F)F)c(F)c2)C(=O)N2CC3(CC3)C[C@H]2C(=O)N(C)C2(CCC2)C(=O)N(C)[C@@H](C(CC)CC)C(=O)N(C)[C@H](C(=O)N(C)C)CC(=O)N1C [PP3305]	A (a compound having 10 or more and less than 20 is denoted as A)	0.68	AA (a compound having 20 or more is denoted as AA)	20.3	–	–	–	–	–
CCCN1CC(=O)N(C)[C@H]2C/C=C\CCN(C2=O)[C@@H](Cc2ccc(C(F)F)cc2)C(=O)N(C)CC(=O)N[C@@H](CCc2cc(F)c(C(F)(F)F)c(F)c2)C(=O)N2C[C@H](OC(C)C)C[C@H]2C(=O)N(C)C2(CCC2)C(=O)N(C)[C@@H](C(CC)CC)C(=O)N(C)[C@H](C(=O)N(C)C)CC(=O)N(C)[C@@H](CC(F)F)C(=O)N[C@@H](C2CCCC2)C1=O [PP3497]	A (a compound having 10 or more and less than 20 is denoted as A)	0.74	A (a compound having 10 or more and less than 20 is denoted as A)	21.2	–	–	–	–	–
CCO[C@@H]1C[C@H]2C(=O)NC3(CCC3)C(=O)N(C)[C@@H](C(CC)CC)C(=O)N(C)[C@H](C(=O)N3CCCC3)CC(=O)N(C)[C@@H](COC)C(=O)N[C@@H]([C@@H](C)CC)C(=O)N(C)CC(=O)N(C)[C@H]3C/C=C\CCN(C3=O)[C@@H](CC3CCC(F)(F)CC3)C(=O)N(C)CC(=O)N[C@@H](CCc3cc(F)c(C(F)(F)F)c(F)c3)C(=O)N2C1 [PP1440]	–	–	–	–	A (a compound having 10 or more and less than 20 is denoted as A)	0.35	AA (a compound having 20 or more is denoted as AA)	69.7	–
CCC[C@H]1C(=O)N[C@@H]([C@@H](C)CC)C(=O)N(C)CC(=O)N(C)[C@H]2C/C=C\CCN(C2=O)[C@@H](Cc2ccc(C(F)(F)F)cc2)C(=O)N(C)CC(=O)N[C@@H](CCc2ccc(C(F)(F)F)c(OC)c2)C(=O)N2CC3(CC3)C[C@H]2C(=O)N(C)C2(CCC2)C(=O)N(C)[C@@H](C(CC)CC)C(=O)N(C)[C@H](C(=O)N(C)C)CC(=O)N1C [PP3361]	A (a compound having 10 or more and less than 20 is denoted as A)	1.5	A (a compound having 10 or more and less than 20 is denoted as A)	4.7	–	–	–	–	–
CCC[C@H]1C(=O)N[C@@H]([C@@H](C)CC)C(=O)N(C)CC(=O)N(C)[C@H]2C/C=C\CCN(C2=O)[C@@H](Cc2ccc(C)cc2)C(=O)N(C)CC(=O)N[C@@H](CCc2ccc(C(F)(F)F)c(Cl)c2)C(=O)N2CC3(CC3)C[C@H]2C(=O)N(C)C2(CCC2)C(=O)N(C)[C@@H](C2CCCC2)C(=O)N(C)[C@H](C(=O)N(C)C)CC(=O)N1C [PP3298]	B (a compound having 3 or more and less than 10 is denoted as B)	0.34	B (a compound having 3 or more and less than 10 is denoted as B)	3.4	–	–	–	–	–
CCOC[C@H]1C(=O)N[C@@H]([C@@H](C)CC)C(=O)N2CCC[C@H]2C(=O)N(C)[C@H]2C/C=C\CCN(C2=O)[C@@H](Cc2ccc(C)cc2)C(=O)N(C)CC(=O)N[C@@H](CCc2ccc(C(F)(F)F)c(OC)c2)C(=O)N2C[C@@H](C)C[C@H]2C(=O)NC2(CC(C)(C)C2)C(=O)N(C)[C@@H](C2CCCC2)C(=O)N(C)[C@H](C(=O)N(C)CC)CC(=O)N1C [PP2427]	A (a compound having 10 or more and less than 20 is denoted as A)	–	AA (a compound having 20 or more is denoted as AA)	36.6	–	–	–	–	0.7
C#CC[C@H]1C(=O)N[C@@H]([C@@H](C)CC)C(=O)N2CCC[C@H]2C(=O)N(C)[C@H]2C/C=C\CCN(C2=O)[C@@H](Cc2ccc(C(F)(F)F)cc2)C(=O)N(C)CC(=O)N[C@@H](CCc2ccc(C(F)(F)F)c(OC)c2)C(=O)N2C[C@H](OCC)C[C@H]2C(=O)OC2(CCC2)C(=O)N(C)[C@@H](C2CCCC2)C(=O)N(C)[C@H](C(=O)N(C)C)CC(=O)N1C [PP3371]	A (a compound having 10 or more and less than 20 is denoted as A)	0.33	A (a compound having 10 or more and less than 20 is denoted as A)	5.4	–	–	–	–	–
CCCOC[C@@H]1NC(=O)C[C@@H](C(=O)N(C)CCC)N(C)C(=O)[C@H](C2CCCC2)N(C)C(=O)C2(CC(C)(C)C2)NC(=O)[C@@H]2C[C@@H](OCC)CN2C(=O)[C@H](CCc2ccc(C(F)(F)F)c(OC)c2)NC(=O)CN(C)C(=O)[C@H](Cc2ccc(C(F)(F)F)cc2)N2CC/C=C\C[C@@H](C2=O)N(C)C(=O)CN(C)C(=O)[C@H]([C@@H](C)CC)NC1=O [PP3449]	A (a compound having 10 or more and less than 20 is denoted as A)	0.25	A (a compound having 10 or more and less than 20 is denoted as A)	31.9	–	–	–	–	–
CCO[C@@H]1C[C@H]2C(=O)NC3(CC(C)(C)C3)C(=O)N(C)[C@@H](C3CCCC3)C(=O)N(C)[C@H](C(=O)N(C)C)CC(=O)N(C)[C@@H](CC(C)C)C(=O)N[C@@H]([C@@H](C)CC)C(=O)N(C)CC(=O)N(C)[C@H]3C/C(F)=C\CCN(C3=O)[C@@H](Cc3ccc(C)cc3)C(=O)N(C)CC(=O)N[C@@H](CCc3cc(F)c(C(F)(F)F)c(F)c3)C(=O)N2C1 [PP3513]	B (a compound having 3 or more and less than 10 is denoted as B)	0.14	B (a compound having 3 or more and less than 10 is denoted as B)	8.6	–	–	–	–	–
CCO[C@@H]1C[C@H]2C(=O)OC3(CCC3)C(=O)N(C)[C@@H](C3CCCC3)C(=O)N(C)[C@H](C(=O)N(C)C)CC(=O)N(C)[C@@H]([C@@H](C)OC)C(=O)N[C@@H]([C@@H](C)CC)C(=O)N3CCC[C@H]3C(=O)N(C)[C@H]3C/C=C\CCN(C3=O)[C@@H](Cc3ccc(C)cc3)C(=O)N(C)CC(=O)N[C@@H](CCc3ccc(C(F)(F)F)c(OC)c3)C(=O)N2C1 [PP3392]	B (a compound having 3 or more and less than 10 is denoted as B)	0.64	A (a compound having 10 or more and less than 20 is denoted as A)	11.5	–	–	–	–	–
CCC[C@H]1C(=O)N[C@@H]([C@@H](C)CC)C(=O)N2CC[C@H]2C(=O)N(C)[C@H]2C/C(F)=C\CCN(C2=O)[C@@H](Cc2ccc(C)cc2)C(=O)N(C)CC(=O)N[C@@H](CCc2ccc(C(F)(F)F)c(OC)c2)C(=O)N2C[C@H](OCC)C[C@H]2C(=O)N(C)C2(CCC2)C(=O)N(C)[C@@H](C2CCCC2)C(=O)N(C)[C@H](C(=O)N(C)C)CC(=O)N1C [PP3530]	B (a compound having 3 or more and less than 10 is denoted as B)	0.14	B (a compound having 3 or more and less than 10 is denoted as B)	6.8	–	–	–	–	–
CCC[C@H]1C(=O)N[C@@H](CC(C)C)C(=O)N(CC)CC(=O)N(C)[C@H]2C/C=C\CCN(C2=O)[C@@H](Cc2ccc(C)cc2)C(=O)N(C)CC(=O)N[C@@H](CCc2ccc(C(F)(F)F)c(Cl)c2)C(=O)N2C[C@H](OCC)C[C@H]2C(=O)NC2(CC(C)(C)C2)C(=O)N(C)[C@@H](C2CCCC2)C(=O)N(C)[C@H](C(=O)N(C)C)CC(=O)N1C [PP2528]	B (a compound having 3 or more and less than 10 is denoted as B)	–	A (a compound having 10 or more and less than 20 is denoted as A)	207	–	–	–	–	4.6
CCC[C@H]1C(=O)N[C@@H]([C@@H](C)CC)C(=O)N(C)CC(=O)N(C)[C@H]2C/C=C\CCN(C2=O)[C@@H](Cc2ccc(C(F)(F)F)cc2)C(=O)N(C)CC(=O)N[C@@H](CCc2cc(F)c(C(F)(F)F)c(F)c2)C(=O)N2CC3(CC3)C[C@H]2C(=O)NC2(CCC2)C(=O)N(C)[C@@H](CC(C)(C)C)C(=O)N(C)[C@H](C(=O)N(C)C)CC(=O)N1C [PP3406]	B (a compound having 3 or more and less than 10 is denoted as B)	0.035	A (a compound having 10 or more and less than 20 is denoted as A)	5.7	–	–	–	–	–
CCCOC[C@H]1C(=O)N[C@@H](C2CCCC2)C(=O)N(CCC)CC(=O)N(C)[C@H]2C/C=C\CCN(C2=O)[C@@H](Cc2ccc(C(F)F)cc2)C(=O)N(C)CC(=O)N[C@@H](CCc2cc(F)c(C(F)(F)F)c(F)c2)C(=O)N2C[C@H](OC(C)C)C[C@H]2C(=O)N(C)C2(CCC2)C(=O)N(C)[C@@H](C(CC)CC)C(=O)N(C)[C@H](C(=O)N(C)C)CC(=O)N1C [PP3487]	A (a compound having 10 or more and less than 20 is denoted as A)	0.96	A (a compound having 10 or more and less than 20 is denoted as A)	39.8	–	–	–	–	–
